Test results taken from patent publication US20080146669A1, “Novel Chloride Channel Pore Openers” (THE UAB RESEARCH FOUNDATION, priority 2005, published 2008).
Where two headings read alike, the source gives them in different places.

What was measured:
[1] = biological target: T1, AR-S660A-CFTR (Homo sapiens, UniProt P13569, DEL708-835/S660A); experiment: Macroscopic currents in excised HEK-293T patches, R domain deletion mutant, no PKA; assay type: biochemical; conditions: 10 μM
T1 construct: expressed in transfected cells; host or cells: HEK-293T, transient
T1 sequence (P13569 with tags, fused parts or gaps S660A/DEL708-835): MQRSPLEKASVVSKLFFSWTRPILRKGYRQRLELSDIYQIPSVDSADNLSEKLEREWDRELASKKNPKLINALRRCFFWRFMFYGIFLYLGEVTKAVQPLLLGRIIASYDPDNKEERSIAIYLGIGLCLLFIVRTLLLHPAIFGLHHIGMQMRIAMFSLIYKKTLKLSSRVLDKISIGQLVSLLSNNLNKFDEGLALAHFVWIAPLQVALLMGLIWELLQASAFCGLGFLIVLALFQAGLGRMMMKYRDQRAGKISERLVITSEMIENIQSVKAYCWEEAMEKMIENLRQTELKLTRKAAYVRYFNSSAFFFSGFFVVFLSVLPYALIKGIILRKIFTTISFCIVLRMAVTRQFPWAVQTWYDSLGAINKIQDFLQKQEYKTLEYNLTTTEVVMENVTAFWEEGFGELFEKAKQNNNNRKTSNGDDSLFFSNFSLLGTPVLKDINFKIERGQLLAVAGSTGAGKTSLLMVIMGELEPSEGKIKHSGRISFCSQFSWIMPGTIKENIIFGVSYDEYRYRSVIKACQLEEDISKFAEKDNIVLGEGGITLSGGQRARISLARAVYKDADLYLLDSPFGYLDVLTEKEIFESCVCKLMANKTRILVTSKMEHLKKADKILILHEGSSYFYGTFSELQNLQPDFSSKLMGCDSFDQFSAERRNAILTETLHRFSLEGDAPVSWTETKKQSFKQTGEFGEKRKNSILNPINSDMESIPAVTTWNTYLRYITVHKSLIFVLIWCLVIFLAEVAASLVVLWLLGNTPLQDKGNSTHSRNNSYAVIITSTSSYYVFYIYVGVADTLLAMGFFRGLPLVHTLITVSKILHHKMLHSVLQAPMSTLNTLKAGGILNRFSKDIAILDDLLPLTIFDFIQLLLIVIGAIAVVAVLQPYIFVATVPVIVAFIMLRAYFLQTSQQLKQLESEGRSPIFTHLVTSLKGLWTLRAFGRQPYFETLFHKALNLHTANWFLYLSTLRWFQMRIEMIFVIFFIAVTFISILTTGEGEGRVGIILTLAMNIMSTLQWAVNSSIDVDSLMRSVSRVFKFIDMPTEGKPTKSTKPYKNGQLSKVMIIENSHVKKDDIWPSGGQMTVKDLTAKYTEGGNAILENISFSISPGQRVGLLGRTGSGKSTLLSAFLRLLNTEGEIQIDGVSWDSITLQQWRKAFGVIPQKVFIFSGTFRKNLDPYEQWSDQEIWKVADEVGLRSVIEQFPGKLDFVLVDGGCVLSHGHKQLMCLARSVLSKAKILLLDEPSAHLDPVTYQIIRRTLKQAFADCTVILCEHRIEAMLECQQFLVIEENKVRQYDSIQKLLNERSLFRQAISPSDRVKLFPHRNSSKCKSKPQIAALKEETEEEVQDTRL
Procedure: (§1) Cell culture DNA constructs and transfections. Baby hamster kidney (BHK) cells stably expressing wild type human CFTR (BHK-CFTR) were provided by J. Hanrahan (McGill University). BHK-CFTR cells were cultured in Dulbecco's modified Eagle's medium (DMEM (Mediatech)) supplemented with 5% fetal bovine serum (FBS) and 1 mM penicillin-streptomycin. The growth media for the BHK-CFTR cells also contained 0.5 mM methotrexate to maintain selection for CFTR-expressing cells (22). HEK-293T cells were transiently transfected with wild-type or mutant CFTR cDNA using the Lipofectamine transfection kit following manufacturer's recommendations (Invitrogen, Corp). HEK-293T cells were cultured in DMEM. All cells were grown on plastic coverslips for patch clamp recording and were used 2-3 days post-seeding. Electrophysiology and data analysis. Macroscopic and multi-channel currents were recorded in the excised, inside-out configuration. Patch pipettes were pulled from Corning 8161 glass to tip resistances of […] (macroscopic recordings) or 8-10 mOhm (micropatch studies). CFTR channels were activated following patch excision by exposure of the cytoplasmic face of the patch to catalytic subunit of protein kinase A (PKA; 110 U/ml; Promega) and Mg-ATP (1.5 mM). CFTR currents were recorded in symmetrical solution containing (in mM): 140 N-methyl-D-glucaniine-Cl, 3 MgCl2, 1 EGTA and 10 TES. […]

[2] = biological target: T2, ΔF508-CFTR (Homo sapiens, UniProt P13569, DEL508-508); experiment: Macroscopic currents in excised patches from temperature-corrected HEK-293T cells expressing ΔF508-CFTR; assay type: biochemical
T2 construct: expressed in transfected cells; host or cells: HEK-293T, transient; grown at 28° C. for 24 hrs
T2 sequence (P13569 with tags, fused parts or gaps DEL508-508): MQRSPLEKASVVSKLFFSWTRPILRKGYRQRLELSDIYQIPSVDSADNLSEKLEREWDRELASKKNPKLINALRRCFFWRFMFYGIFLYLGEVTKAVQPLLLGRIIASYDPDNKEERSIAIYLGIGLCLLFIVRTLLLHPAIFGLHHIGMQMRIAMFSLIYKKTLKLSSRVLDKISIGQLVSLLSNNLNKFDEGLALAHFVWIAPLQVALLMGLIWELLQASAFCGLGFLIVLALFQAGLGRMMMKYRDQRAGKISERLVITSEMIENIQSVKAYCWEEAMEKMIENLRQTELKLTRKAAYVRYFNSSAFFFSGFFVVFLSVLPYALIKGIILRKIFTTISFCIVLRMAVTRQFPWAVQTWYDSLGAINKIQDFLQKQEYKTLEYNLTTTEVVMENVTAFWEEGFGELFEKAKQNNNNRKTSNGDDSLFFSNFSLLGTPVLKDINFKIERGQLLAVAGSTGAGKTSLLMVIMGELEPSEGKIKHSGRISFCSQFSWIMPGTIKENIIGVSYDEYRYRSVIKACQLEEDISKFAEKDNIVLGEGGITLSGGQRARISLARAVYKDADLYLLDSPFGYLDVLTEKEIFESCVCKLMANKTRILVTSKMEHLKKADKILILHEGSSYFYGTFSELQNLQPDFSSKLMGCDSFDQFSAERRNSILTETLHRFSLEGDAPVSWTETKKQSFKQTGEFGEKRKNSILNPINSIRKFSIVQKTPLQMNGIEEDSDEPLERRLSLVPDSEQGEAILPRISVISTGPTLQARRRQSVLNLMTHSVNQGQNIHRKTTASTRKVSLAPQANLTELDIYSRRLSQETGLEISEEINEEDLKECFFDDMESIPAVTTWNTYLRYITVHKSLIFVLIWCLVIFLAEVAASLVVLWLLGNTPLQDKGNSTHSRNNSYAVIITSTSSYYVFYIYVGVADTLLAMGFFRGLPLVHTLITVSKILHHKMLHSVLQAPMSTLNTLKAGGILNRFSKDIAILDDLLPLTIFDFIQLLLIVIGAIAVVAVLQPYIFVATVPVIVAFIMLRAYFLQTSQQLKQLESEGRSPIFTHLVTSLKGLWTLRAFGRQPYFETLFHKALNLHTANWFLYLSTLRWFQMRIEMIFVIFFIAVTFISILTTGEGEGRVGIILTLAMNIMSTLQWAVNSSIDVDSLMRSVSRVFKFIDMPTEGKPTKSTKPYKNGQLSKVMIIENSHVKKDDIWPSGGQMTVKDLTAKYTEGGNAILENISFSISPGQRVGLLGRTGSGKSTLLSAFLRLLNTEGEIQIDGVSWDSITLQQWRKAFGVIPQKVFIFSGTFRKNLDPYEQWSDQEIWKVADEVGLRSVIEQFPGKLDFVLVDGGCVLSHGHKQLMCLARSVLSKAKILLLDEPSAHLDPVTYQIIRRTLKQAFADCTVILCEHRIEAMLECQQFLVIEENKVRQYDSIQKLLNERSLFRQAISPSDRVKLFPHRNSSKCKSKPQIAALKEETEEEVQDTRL
Procedure: (§2) Cell culture DNA constructs and transfections. Baby hamster kidney (BHK) cells stably expressing wild type human CFTR (BHK-CFTR) were provided by J. Hanrahan (McGill University). BHK-CFTR cells were cultured in Dulbecco's modified Eagle's medium (DMEM (Mediatech)) supplemented with 5% fetal bovine serum (FBS) and 1 mM penicillin-streptomycin. The growth media for the BHK-CFTR cells also contained 0.5 mM methotrexate to maintain selection for CFTR-expressing cells (22). HEK-293T cells were transiently transfected with wild-type or mutant CFTR cDNA using the Lipofectamine transfection kit following manufacturer's recommendations (Invitrogen, Corp). HEK-293T cells were cultured in DMEM. All cells were grown on plastic coverslips for patch clamp recording and were used 2-3 days post-seeding. Electrophysiology and data analysis. Macroscopic and multi-channel currents were recorded in the excised, inside-out configuration. Patch pipettes were pulled from Corning 8161 glass to tip resistances of […] (macroscopic recordings) or 8-10 mOhm (micropatch studies). CFTR channels were activated following patch excision by exposure of the cytoplasmic face of the patch to catalytic subunit of protein kinase A (PKA; 110 U/ml; Promega) and Mg-ATP (1.5 mM). CFTR currents were recorded in symmetrical solution containing (in mM): 140 N-methyl-D-glucaniine-Cl, 3 MgCl2, 1 EGTA and 10 TES. The pH was adjusted to 7.3. Macroscopic currents were evoked using a ramp protocol from +80 to −80 mV with a 10 sec time period. Patches were held at −80 mV or +80 mV for micropatch (multichannel) recordings. All patch clamp experiments were performed at 21-23° C. Signals from macroscopic and single channel recording were filtered at 20 and 200 Hz, respectively. Data acquisition and analysis were performed using pCLAMP8 and pCLAMP9 software (Axon Instruments). Curve fitting for kinetic analysis was performed using Microcal Origin software. Averaged data are presented as mean +/−SEM. Statistical comparisons were made by performing unpaired t-tests unless otherwise indicated. Ussing Chamber Experiments-CFBE41o epithelial cells stably transfected with ΔF508-CFTR or transiently transfected with wild-type CFTR were cultured as electrically resistive monolayers and assayed in Ussing chambers as described (16). ΔF508-CFTR-expressing monolayers were grown at 27° C. for 2-3 days to enhance the surface expression of this temperature-sensitive mutant. A serosal-to-mucosal Cl^− gradient (120 to 1.2 mM) was imposed, followed by amiloride addition (100 μM) to block Na^+ currents. Compounds were added to both chambers at the indicated concentrations. A 3-mV voltage pulse was imposed every 100 s to monitor transepithelial resistance.

[3] = biological target: T3, wild-type CFTR (Homo sapiens, UniProt P13569); experiment: Ussing chamber transepithelial chloride currents, wild type CFTR-expressing CFBE41o- monolayers; assay type: cell-based; design: expressed in transfected cells; host or cells: HEK-293T, transient (Lipofectamine); conditions: 120 nM to 12 μM
T3 sequence (P13569 whole entry): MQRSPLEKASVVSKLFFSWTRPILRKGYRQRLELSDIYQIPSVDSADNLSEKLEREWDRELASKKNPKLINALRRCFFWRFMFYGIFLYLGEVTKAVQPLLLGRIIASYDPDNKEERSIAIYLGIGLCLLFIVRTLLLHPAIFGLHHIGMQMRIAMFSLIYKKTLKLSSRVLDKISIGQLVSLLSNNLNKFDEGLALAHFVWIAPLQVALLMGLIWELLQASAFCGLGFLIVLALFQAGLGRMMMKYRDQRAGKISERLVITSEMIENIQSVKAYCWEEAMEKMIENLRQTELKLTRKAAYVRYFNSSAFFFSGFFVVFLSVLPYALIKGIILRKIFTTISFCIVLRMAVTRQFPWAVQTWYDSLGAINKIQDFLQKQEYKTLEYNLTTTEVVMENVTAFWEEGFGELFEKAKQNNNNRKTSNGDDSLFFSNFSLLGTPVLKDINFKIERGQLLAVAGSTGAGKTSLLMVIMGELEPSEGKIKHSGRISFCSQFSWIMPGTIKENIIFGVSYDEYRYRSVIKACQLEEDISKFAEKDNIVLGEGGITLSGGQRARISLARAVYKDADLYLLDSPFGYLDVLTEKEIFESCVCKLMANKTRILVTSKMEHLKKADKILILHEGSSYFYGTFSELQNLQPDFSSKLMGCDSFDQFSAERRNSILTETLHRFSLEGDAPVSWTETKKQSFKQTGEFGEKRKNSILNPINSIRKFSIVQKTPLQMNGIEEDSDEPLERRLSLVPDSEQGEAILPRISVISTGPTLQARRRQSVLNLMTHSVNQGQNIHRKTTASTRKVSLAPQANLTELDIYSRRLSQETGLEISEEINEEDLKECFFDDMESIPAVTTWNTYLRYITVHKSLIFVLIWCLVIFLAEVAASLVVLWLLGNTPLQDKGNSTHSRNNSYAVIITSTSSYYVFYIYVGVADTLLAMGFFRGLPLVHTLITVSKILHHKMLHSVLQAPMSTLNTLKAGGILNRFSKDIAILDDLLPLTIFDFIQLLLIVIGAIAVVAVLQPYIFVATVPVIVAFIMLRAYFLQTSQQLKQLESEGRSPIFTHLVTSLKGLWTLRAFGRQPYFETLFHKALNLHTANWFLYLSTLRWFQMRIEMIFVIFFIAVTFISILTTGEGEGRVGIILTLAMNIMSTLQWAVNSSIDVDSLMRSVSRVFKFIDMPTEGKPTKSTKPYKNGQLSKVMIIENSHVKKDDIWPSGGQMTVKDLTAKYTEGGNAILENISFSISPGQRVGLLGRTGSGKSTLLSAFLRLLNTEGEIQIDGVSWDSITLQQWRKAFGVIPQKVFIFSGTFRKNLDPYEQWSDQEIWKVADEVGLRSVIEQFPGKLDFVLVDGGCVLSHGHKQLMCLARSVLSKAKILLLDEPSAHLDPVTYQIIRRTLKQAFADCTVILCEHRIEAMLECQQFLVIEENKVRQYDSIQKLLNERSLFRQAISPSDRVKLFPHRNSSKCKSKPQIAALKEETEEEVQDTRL
Procedure: as §1

[4] = Solubility limit on achievable dose; assay type: physicochemical; conditions: 200-400 μM doses impossible to achieve
[5] = biological target: T3, wild-type CFTR; experiment: Macroscopic currents in excised patches from wild-type CFTR-transfected HEK-293T cells; assay type: biochemical; design: expressed in transfected cells; host or cells: HEK-293T, transient (Lipofectamine); conditions: 10 μM; 1.5 mM Mg-ATP and 110 U/ml PKA
Procedure: as §1

[6] = biological target: T3, wild-type CFTR; experiment: Macroscopic currents in excised inside-out patches from BHK-CFTR cells; assay type: biochemical; design: expressed in transfected cells; provided by J. Hanrahan (McGill University); conditions: for EC50: moderately phosphorylated wild-type channels, normalized to peak current at 10 μM, read-out: EC50 of CFTR current stimulation (titration)
Procedure: as §2, with “CFTR channels were activated following patch excision by exposure of the cytoplasmic face of the patch to catalytic subunit of protein kinase A (PKA; 110 U/ml; Promega) and Mg-ATP (1.5 mM).” left out

effect on currents in the absence of PKA [1]: markedly stimulate
increase in ΔF508-CFTR macroscopic currents ([2]; 10 μM, 1.5 mM Mg-ATP and 110 U/ml PKA): 10-15 fold
effect on ΔF508-CFTR macroscopic currents ([2]; 10 μM, high PKA 110 U/ml without PKI): dramatically stimulated
effect on ΔF508-CFTR channel activity in the absence of active kinase ([2]; added after PKI): markedly stimulated
effect on transepithelial currents without cAMP agonist [3]: stimulated the transepithelial currents
solubility relative to NPPB [4]: less soluble
stimulation of the activity of the wild-type channel [5]: 1.5-2 fold
increase of the current ([6]; 125 nM, mean titration data, n=8): approximately 20%
increase of the current ([6]; 250 nM, representative patch): 25%
effect on currents of poorly phosphorylated or thiolated CFTR channels ([6]; 10 μM): effectively stimulated the currents
effect on currents of moderately phosphorylated wild-type channels ([6]; 10 μM, high PKA followed by PKI): stimulates currents in both directions
effect on the Mg-ATP sensitivity of CFTR activity ([6]; Mg-ATP titration with and without compound, data not shown): no obvious effect
EC50 ([6]; listed as NPPB-AM): 960 nM
EC50 [6]: 710 nM
lowest concentration with detectable increases in CFTR currents ([6]; titration experiments): 250 nM
Compound: NC(=O)c1cc([N+](=O)[O-])ccc1NCCCc1ccccc1 [NPPB-Am]
relative stimulation as a function of CFTR phosphorylation [6]: greater relative stimulatory effect on poorly phosphorylated CFTR channels
time course and reversibility of the stimulation of CFTR current [6]: rapid, stable and quickly reversible upon wash out
voltage dependence of the stimulation of CFTR current [6]: voltage-independent with no evidence for CFTR inhibition at any holding potential
